Reference: patent US9376470B2, “Polypeptide having angiogenesis-inducing activity and antibacterial activity, and use thereof for medical purposes” (FunPep Inc., priority 2008, dated 2016)
Peptide text beside a SMILES is read from it.

Experiments:
Assay in all cases: Antibacterial activity, ATP assay (BacTiter-Glo)
Type in all cases: cell-based
[1] = tested on: Klebsiella pneumoniae JCM 1662; conditions: ATP assay concentration: peptides 10, TOB 4.0, CPFX 1.0, OX 0.5, MEPM 8.0 μg/ml
Experimental: (§1) That is, using BacTiter-Glo Microbial Cell Viability Assay kit available from PROMEGA, the antibacterial activity of the peptides was evaluated from the viability of bacteria. […] With respect to the strains, Staphylococcus aureus ATCC29213 (S. aureus ATCC29213) as Gram-positive bacteria, or, alternatively, Pseudomonas aeruginosa (P. aeruginosa ATCC27853) as Gram-negative bacteria, was used. The bacteria were cultured in media for 3 to 4 hours, and thereafter absorbances at A600 were measured. Bacterial suspensions were diluted with Mueller-Hinton broth (MHB) according to McFarland #0.5. Each strain was added so as to attain about 0.5−1×10^5 CFU/mL (final concentration) in terms of Escherichia coli. […] A solution to which the peptides were not added was considered as a negative control, and a solution to which tobramycin (TOB) was added was considered as a positive control. […] Relative values were calculated by comparison with the negative control, and these values were regarded as the viability. […] ATP (%) of the antibacterial activity was measured in the same manner as mentioned above, and the “minimum inhibitory concentration (MIC)” was measured as follows. MIC is the lowest concentration of an agent that may inhibit the growth of a bacterium. MIC is used as a parameter for the efficacy of an antibacterial agent, for the strength of bacterial sensitivity, or the like. The bacteria can grow (proliferate) when the concentration is not higher than MIC, and cannot grow when the concentration is higher than MIC. Its measurement is carried out according to a method defined as a standard method by Japanese Society of Chemotherapy or CLINICAL AND LABORATORY […] (CLSI), but, in this Example, its measurement was carried out by a broth microdilution method in accordance with “M100-S17/M7-A7” (Performance Standards for Antimicrobial Susceptibility Testing; Seventeenth Informational Supplement, Vol. 27 No. 1) published by CLSI on January, 2007. That is, sensitivity test of agents was carried out using a microtiter plate or test tubes. With respect to each strain, Escherichia coli: ATCC 25922 (Escherichia coli ATCC 25922), Pseudomonas aeruginosa: ATCC 27853 (Pseudomonas aeruginosa ATCC 27853), Staphylococcus aureus: ATCC29213 (Staphylococcus aureus ATCC29213), Klebsiella pneumoniae: JCM 1662 (Klebsiella pneumoniae JCM 1662), enterobacteria (1): JCM 1232 (Enterobacter cloacae JCM 1232), enterobacteria (2): JCM 1235 (Enterobacter aerogenes JCM 1235), and Staphylococcus epidermidis: JCM 2414 (Staphylococcus epidermidis JCM 2414), were used. […] As the concentrations of the agents in ATP assay, the concentrations as described in the Tables were used.

[2] = tested on: Escherichia coli ATCC 25922; conditions: ATP assay concentration: peptides 10, TOB 1.0, CPFX 0.015, OX 0.5, MEPM 0.1 μg/ml
Experimental: as §1

[3] = tested on: Staphylococcus epidermidis JCM 2414; conditions: ATP assay concentration: peptides 10, TOB 1.0, CPFX 0.5, OX 0.5, MEPM 0.125 μg/ml
Experimental: as §1

[4] = tested on: Enterobacteria (2): Enterobacter aerogenes JCM 1235; conditions: ATP assay concentration: peptides 10, TOB 4.0, CPFX 1.0, OX 4.0, MEPM 8.0 μg/ml
Experimental: as §1

[5] = tested on: Enterobacteria (1): Enterobacter cloacae JCM 1232; conditions: ATP assay concentration: peptides 10, TOB 4.0, CPFX 1.0, OX 4.0, MEPM 8.0 μg/ml
Experimental: That is, using BacTiter-Glo Microbial Cell Viability Assay kit available from PROMEGA, the antibacterial activity of the peptides was evaluated from the viability of bacteria. […] With respect to the strains, Staphylococcus aureus ATCC29213 (S. aureus ATCC29213) as Gram-positive bacteria, or, alternatively, Pseudomonas aeruginosa (P. aeruginosa ATCC27853) as Gram-negative bacteria, was used. The bacteria were cultured in media for 3 to 4 hours, and thereafter absorbances at A600 were measured. Bacterial suspensions were diluted with Mueller-Hinton broth (MHB) according to McFarland #0.5. Each strain was added so as to attain about 0.5−1×10^5 CFU/mL (final concentration) in terms of Escherichia coli. […] A solution to which the peptides were not added was considered as a negative control, and a solution to which tobramycin (TOB) was added was considered as a positive control. […] Relative values were calculated by comparison with the negative control, and these values were regarded as the viability. […] ATP (%) of the antibacterial activity was measured in the same manner as mentioned above, and the “minimum inhibitory concentration (MIC)” was measured as follows. MIC is the lowest concentration of an agent that may inhibit the growth of a bacterium. MIC is used as a parameter for the efficacy of an antibacterial agent, for the strength of bacterial sensitivity, or the like. The bacteria can grow (proliferate) when the concentration is not higher than MIC, and cannot grow when the concentration is higher than MIC. […] (CLSI), but, in this Example, its measurement was carried out by a broth microdilution method in accordance with “M100-S17/M7-A7” (Performance Standards for Antimicrobial Susceptibility Testing; Seventeenth Informational Supplement, Vol. 27 No. 1) published by CLSI on January, 2007. That is, sensitivity test of agents was carried out using a microtiter plate or test tubes. With respect to each strain, Escherichia coli: ATCC 25922 (Escherichia coli ATCC 25922), Pseudomonas aeruginosa: ATCC 27853 (Pseudomonas aeruginosa ATCC 27853), Staphylococcus aureus: ATCC29213 (Staphylococcus aureus ATCC29213), Klebsiella pneumoniae: JCM 1662 (Klebsiella pneumoniae JCM 1662), enterobacteria (1): JCM 1232 (Enterobacter cloacae JCM 1232), enterobacteria (2): JCM 1235 (Enterobacter aerogenes JCM 1235), and Staphylococcus epidermidis: JCM 2414 (Staphylococcus epidermidis JCM 2414), were used. […] As the concentrations of the agents in ATP assay, the concentrations as described in the Tables were used.

| SMILES | ATP (%) mean, Klebsiella pneumoniae [1] | ATP (%) mean, Escherichia coli [2] | ATP (%) mean, Staphylococcus epidermidis [3] | ATP (%) mean, Enterobacteria (2) [4] | ATP (%) mean, Enterobacteria (1) [5] |
| --- | --- | --- | --- | --- | --- |
| C[C@@H](O)[C@H]1C(=O)N2C(C(=O)O)=C(S[C@@H]3CN[C@H](C(=O)N(C)C)C3)[C@H](C)[C@H]12 [MEPM, meropenem, reference compound] | 11.9% | 15.7% | 28.2% | 2.3% | 5.6% |
| Cc1onc(-c2ccccc2)c1C(=O)N[C@@H]1C(=O)N2[C@@H]1SC(C)(C)[C@@H]2C(=O)O [OX, oxacillin, reference compound] | 142.2% | 114.4% | 101.4% | 86.9% | 97.7% |
| CC[C@H](C)[C@H](NC(=O)[C@H](CC(C)C)NC(=O)[C@H](CCCCN)NC(=O)[C@H](CC(C)C)NC(=O)[C@@H](N)CCSC)C(=O)N[C@@H](Cc1ccccc1)C(=O)N[C@@H](CC(C)C)C(=O)N[C@@H](Cc1c[nH]cn1)C(=O)N[C@@H](CCCNC(=N)N)C(=O)N[C@@H](CC(C)C)C(=O)N[C@@H](CCCCN)C(=O)N[C@@H](CCCNC(=N)N)C(=O)N[C@@H](CCSC)C(=O)N[C@@H](CCCNC(=N)N)C(=O)N[C@@H](CCCCN)C(=O)N[C@@H](CCCNC(=N)N)C(=O)N[C@@H](CC(C)C)C(=O)N[C@@H](CCCCN)C(=O)N[C@@H](CCCNC(=N)N)C(=O)N[C@@H](CCCCN)C(=O)O [SR-1] (H-MLKLIFLHRLKRMRKRLKRK-OH; N-terminus assumed) | 22.1% | 18.4% | 5.2% | 39.4% | 4.9% |
| CC(C)C[C@H](NC(=O)[C@H](CCCCN)NC(=O)[C@H](CCCNC(=N)N)NC(=O)[C@H](CCCCN)NC(=O)[C@H](CC(C)C)NC(=O)[C@H](CCCNC(=N)N)NC(=O)[C@H](CCCCN)NC(=O)[C@H](CCCNC(=N)N)NC(=O)[C@H](CC(C)C)NC(=O)[C@H](CCCNC(=N)N)NC(=O)[C@H](CCCNC(=N)N)NC(=O)[C@H](CCCCN)NC(=O)[C@H](CC(C)C)NC(=O)[C@H](CCCNC(=N)N)NC(=O)[C@H](Cc1c[nH]cn1)NC(=O)[C@H](CC(C)C)NC(=O)[C@H](Cc1ccccc1)NC(=O)[C@H](CCCNC(=N)N)NC(=O)[C@H](CC(C)C)NC(=O)[C@@H](N)CCC(=O)O)C(=O)N[C@@H](CCCNC(=N)N)C(N)=O [SR-2] (H-ELRFLHRLKRRLRKRLKRKLR-NH2; N-terminus assumed) | 9.1% | 6.2% | 2.6% | 15.3% | 3.0% |
| CSCC[C@H](NC(=O)[C@H](CCCNC(=N)N)NC(=O)[C@H](CCCCN)NC(=O)[C@H](CC(C)C)NC(=O)[C@H](CCCNC(=N)N)NC(=O)[C@H](Cc1c[nH]cn1)NC(=O)[C@H](CC(C)C)NC(=O)[C@H](Cc1ccccc1)NC(=O)[C@H](CCCNC(=N)N)NC(=O)[C@H](CC(C)C)NC(=O)[C@@H](N)CCC(=O)O)C(=O)N[C@@H](CCCNC(=N)N)C(=O)N[C@@H](CCCCN)C(=O)N[C@@H](CCCNC(=N)N)C(=O)N[C@@H](CC(C)C)C(=O)N[C@@H](CCCCN)C(=O)N[C@@H](CCCNC(=N)N)C(=O)N[C@@H](CCCCN)C(=O)N[C@@H](CC(C)C)C(=O)N[C@@H](CCCNC(=N)N)C(N)=O [SR-3] (H-ELRFLHRLKRMRKRLKRKLR-NH2; N-terminus assumed) | 20.3% | 16.5% | 4.1% | 23.5% | 4.3% |
| CC[C@H](C)[C@H](NC(=O)[C@H](CC(C)C)NC(=O)[C@@H](N)CCCCN)C(=O)N[C@@H](Cc1ccccc1)C(=O)N[C@@H](CC(C)C)C(=O)N[C@@H](Cc1c[nH]cn1)C(=O)N[C@@H](CCCNC(=N)N)C(=O)N[C@@H](CC(C)C)C(=O)N[C@@H](CCCCN)C(=O)N[C@@H](CCCNC(=N)N)C(=O)N[C@@H](CCSC)C(=O)N[C@@H](CCCNC(=N)N)C(=O)N[C@@H](CCCCN)C(=O)N[C@@H](CCCNC(=N)N)C(=O)N[C@@H](CC(C)C)C(=O)N[C@@H](CCCCN)C(=O)N[C@@H](CCCNC(=N)N)C(=O)N[C@@H](CCCCN)C(=O)N[C@@H](CC(C)C)C(=O)N[C@@H](CCCNC(=N)N)C(N)=O [SR-4] (H-KLIFLHRLKRMRKRLKRKLR-NH2; N-terminus assumed) | 15.0% | 13.0% | 5.5% | 20.9% | 4.9% |
| CSCC[C@H](NC(=O)[C@H](CCCNC(=N)N)NC(=O)[C@@H](N)CCCCN)C(=O)N[C@@H](CCCNC(=N)N)C(=O)N[C@@H](CCCCN)C(=O)N[C@@H](CCCNC(=N)N)C(=O)N[C@@H](CC(C)C)C(=O)N[C@@H](CCCCN)C(=O)N[C@@H](CCCNC(=N)N)C(=O)N[C@@H](CCCCN)C(=O)N[C@@H](CC(C)C)C(=O)N[C@@H](CCCNC(=N)N)C(=O)N[C@@H](CC(C)C)C(=O)N[C@@H](Cc1c[nH]c2ccccc12)C(=O)N[C@@H](Cc1c[nH]cn1)C(=O)N[C@@H](CCCNC(=N)N)C(=O)N[C@@H](CCCCN)C(=O)N[C@@H](CCCNC(=N)N)C(=O)N[C@@H](Cc1ccc(O)cc1)C(=O)N[C@@H](CCCCN)C(=O)O [SR-5] (H-KRMRKRLKRKLRLWHRKRYK-OH; N-terminus assumed) | 30.0% | 27.0% | 3.6% | 41.5% | 3.4% |
| NC[C@H]1O[C@H](O[C@H]2[C@H](O)[C@@H](O[C@H]3O[C@H](CO)[C@@H](O)[C@H](N)[C@H]3O)[C@H](N)C[C@@H]2N)[C@H](N)C[C@@H]1O [TOB, tobramycin, reference compound] | 3.8% | 3.8% | 4.2% | 0.5% | 3.0% |
